Measured values published in article PMC11341359, “Assessing the immunogenicity risk of salmon calcitonin peptide impurities using in silico and in vitro methods” (Frontiers in Pharmacology, 2024).
Each block holds one molecule with its values, some of them ahead of it. Bridge positions count the residues as written; N and C are the ends. Ends that are not written are not given here. Peptide text beside a SMILES is read from it.

What was measured:
HLA DRB1*0101 = biological target: T1, HLA DRB1*0101 (Homo sapiens, UniProt P01903+P01911, A100R/D57E/F55L/F60I/F76Y/I96L/L162R/M171V/P40L/Q125E/R42F/V115G/Y59C); test: Class II HLA competition binding assay; settings: short assay peptides (Cys7 replaced with Ser); competition with biotinylated allele-specific peptide, soluble HLA DR, overnight, time-resolved fluorescence, triplicate, seven concentrations; unit inferred
T1 construct: incubated overnight to equilibrium with a soluble HLA DR molecule; purchased Benaroya Research Institute, Seattle, Washington
Experimental: (§1) The class II HLA binding assays performed for these studies measure the binding affinity of a target peptide to HLA DRB1*0101, *0301, *0401, *0701, *0901, *1101, *1301, and *1501 in a standardized competition assay. This assay was originally described by [Steere et al. (2006)] and adapted by EpiVax. Previous publications have described the assay in detail ([McMurry et al., 2007]; [Ardito et al., 2011]). Briefly, unlabeled test peptides are incubated overnight to equilibrium with a soluble HLA DR molecule (Benaroya Research Institute, Seattle, Washington) and a biotinylated, allele-specific competitor peptide. The binding reaction is then neutralized, and peptide–HLA complexes are transferred to a 96-well plate coated with the pan-HLA DR antibody, clone L243 (BioLegend), and incubated overnight. The following day, Europium-labeled streptavidin (PerkinElmer, Waltham, MA) is added to identify the peptide–HLA complexes. An indirect measure of binding is determined by time-resolved fluorescence. Each peptide–HLA binding reaction is evaluated in triplicate over a range of seven concentrations. The percent inhibition values at seven distinct concentrations are used to calculate the IC50 value, defined as the concentration at which the test peptide inhibits 50% of the labeled competitor peptide.
(§2) Peptides that bind to the HLA at an IC50 value of 100 nM or less are considered very high-affinity binders. Peptides that bind at IC50 values ranging from 100 nM to 1,000 nM are considered high-affinity binders. Peptides that bind at IC50 values ranging from 1,000 nM to 10,000 nM are considered moderate-affinity binders. Peptides that bind at IC50 values ranging from 10,000 nM to 100,000 nM are considered low-affinity binders, and those with IC50 values ranging from 100,000 nM to 1,000,000 nM are considered negligible-affinity binders. […] We note that these concentrations are specific for the in vitro HLA-binding assay and are used to compare the relative binding affinities of the impurity sequences to the API and independent from the peptide concentrations described for the in vitro T-cell assays described below.

HLA DRB1*0301 = biological target: T2, HLA DRB1*0301 (Homo sapiens, UniProt P01903+P01911, A100K/A102G/A103R/A169T/F55Y/I96L/K41T/L162R/M171V/P40S/Q125H/Q178H/Q39Y/R42S/S66N/T106N/T262R/W38E/Y61H); test: Class II HLA competition binding assay; settings: short assay peptides (Cys7 replaced with Ser), competition with biotinylated allele-specific peptide, soluble HLA DR, overnight, time-resolved fluorescence, triplicate, seven concentrations
T2 construct: incubated overnight to equilibrium with a soluble HLA DR molecule; purchased Benaroya Research Institute, Seattle, Washington
Experimental: as §1, §2

HLA DRB1*0401 = biological target: T3, HLA DRB1*0401 (Homo sapiens, UniProt P01903+P01911, A100K/A169T/F76Y/I96L/K127E/L162R/M171V/N62H/P40V/Q125Y/R42H/S133A/S149N/S66Y/V115G/V209L/W38E); test: Class II HLA competition binding assay; settings: short assay peptides (Cys7 replaced with Ser); competition with biotinylated allele-specific peptide, soluble HLA DR, overnight, time-resolved fluorescence, triplicate, seven concentrations
T3 construct: incubated overnight to equilibrium with a soluble HLA DR molecule; purchased Benaroya Research Institute, Seattle, Washington
Experimental: as §1, §2

HLA DRB1*0701 = HLA DRB1*0701 (Homo sapiens, UniProt P01903+P01911, A100R/A102G/A103Q/D57E/D86V/E43K/F76Y/K127E/L162R/M171V/P40G/Q125H/Q99D/R33Q/R42Y/R54Q/S133A/S66F/T210M/V115G/Y107V/Y59L/Y89S); test: Class II HLA competition binding assay; settings: short assay peptides (Cys7 replaced with Ser); competition with biotinylated allele-specific peptide, soluble HLA DR, overnight, time-resolved fluorescence, triplicate, seven concentrations
Experimental: as §1, §2

HLA DRB1*0901 = HLA DRB1*0901 (Homo sapiens, UniProt P01903+P01911, A100R/A103E/D57H/D86V/F55Y/F60I/F76Y/I96F/K127E/L162R/M171V/P40D/Q125H/Q99R/R33Q/R42F/S133A/S66N/T210M/V115G/W38K/Y107V/Y59G/Y89S); test: Class II HLA competition binding assay; settings: short assay peptides (Cys7 replaced with Ser); competition with biotinylated allele-specific peptide, soluble HLA DR, overnight, time-resolved fluorescence, triplicate, seven concentrations
Experimental: as §1, §2

HLA DRB1*1101 = biological target: T4, HLA DRB1*1101 (Homo sapiens, UniProt P01903+P01911, A100R/A169T/A87E/I96F/K41T/L162R/M171V/P40S/Q125H/Q178H/Q39Y/Q99D/R42S/S66Y/T262R/V115G/W38E); test: Class II HLA competition binding assay; settings: short assay peptides (Cys7 replaced with Ser); competition with biotinylated allele-specific peptide, soluble HLA DR, overnight, time-resolved fluorescence, triplicate, seven concentrations; unit inferred
T4 construct: incubated overnight to equilibrium with a soluble HLA DR molecule; purchased Benaroya Research Institute, Seattle, Washington
Experimental: as §1, §2

HLA DRB1*1301 = biological target: T5, HLA DRB1*1301 (Homo sapiens, UniProt P01903+P01911, A100E/A169T/K41T/L162R/M171V/P40S/Q125H/Q178H/Q39Y/Q99D/R42S/S66N/T262R/W38E/Y61H); test: Class II HLA competition binding assay; settings: short assay peptides (Cys7 replaced with Ser), competition with biotinylated allele-specific peptide, soluble HLA DR, overnight, time-resolved fluorescence, triplicate, seven concentrations
T5 construct: incubated overnight to equilibrium with a soluble HLA DR molecule; purchased Benaroya Research Institute, Seattle, Washington
Experimental: as §1, §2

HLA DRB1*1501 = biological target: T6, HLA DRB1*1501 (Homo sapiens, UniProt P01903+P01911); test: Class II HLA competition binding assay; settings: short assay peptides (Cys7 replaced with Ser); competition with biotinylated allele-specific peptide, soluble HLA DR, overnight, time-resolved fluorescence, triplicate, seven concentrations; unit inferred
T6 construct: incubated overnight to equilibrium with a soluble HLA DR molecule; purchased Benaroya Research Institute, Seattle, Washington
Experimental: as §1, §2

human donor PBMCs = test: In vitro immunogenicity protocol (IVIP) naïve T-cell assay, IFNγ FluoroSpot; format: cell-based; settings: individual full-length peptides at 20 μg/mL, 14 days, then 48 h IFNγ FluoroSpot; 16 donors; positive: SFC > 50 per 10^6, SI ≥ 2, p < 0.05 vs medium
Experimental: To improve the sensitivity of the T-cell assays, fresh (not frozen) blood samples were obtained from human blood donors for the T-cell assays (internal observations). Specifically, PBMCs were isolated from leukocyte reduction filters obtained from the Rhode Island Blood Center (RIBC) in Providence, RI. To confirm the sufficient breadth of HLA coverage in the donor cohort, high-resolution (4-digit) class II HLA haplotyping of donors was performed at the Transplant Immunology Laboratory at Hartford Hospital in Hartford, CT, using the sequence-specific oligonucleotide method (SSP-PCR). […] supertype alleles were expressed by the donor PBMCs used in the assays reported here (HLA DRB1*0301, *0401, *0701, *1101, *1301, and *1501). The HLA identified for the cohort of subjects used in this study is representative of 81.81% of the HLA alleles expressed by the global population. Forty percent of the donors were female and 60% of the donors were male, and their ages ranged from 17 to 83 years. Donor cohort demographic information and HLA types for each donor are provided in Supplementary Figure S1. To measure the naïve T-cell response to salmon calcitonin and impurity peptides, cells were plated at a density of 2.5 × 10^5 cells per well in 96-well U-bottom cell plates in RPMI 1640 cell culture medium supplemented with IL-2 (10 ng/mL) and IL-7 (20 ng/mL) (Gibco). The cells were incubated with […]®, or a synthetic salmon calcitonin peptide, or individual peptide impurities, at a concentration of 20 μg/mL for 14 days at 37°C/5% CO2, with medium exchanges that include cytokine support (IL-2 and IL-7) on days 4, 7, and 11. A concentration of 20 μg/mL (5.8 μM) was the dose selected for the SCT API and the four selected impurities, following a dose-ranging study performed with […]® to determine the maximum dose at which a T-cell response could be observed with no observed toxicity to the cells. The dose-ranging study was performed following the same protocol as described above. The following control antigens were used in the T-cell assays for each of the PBMC samples: positive controls, keyhole limpet hemocyanin (KLH; Thermo Fisher), and the antigenic peptide pool CEFT (ImmunoSpot). In addition, human serum albumin (HSA; Sigma-Aldrich) was used as a negative control antigen, and phytohemagglutinin (PHA; Thermo Fisher), a T-cell mitogen, was used to confirm T-cell functionality. […] Responses were considered positive if (1) the number of spots was at least twice the background (stimulation index [SI] ≥ 2); (2) there were greater than 50 spot-forming cells (SFCs) per 1.0 × 10^6 PBMCs; and (3) responses were statistically different from the media (Student's t-test). Each of the test articles (SCT API, RLD, or impurity peptide) and each of the positive and negative controls were evaluated in nine replicate wells containing donor PBMCs. Following the 14-day incubation, cells in the nine replicate wells were collected, pooled by the treatment condition, and re-plated in triplicate on a precoated anti-human IFNγ FluoroSpot plate (Mabtech) at a concentration of 1.0 × 10^5 cells per well in the presence of an appropriate test article or control reagent in supplemented RPMI 1640 culture medium. The FluoroSpot plates were incubated for 48 h at 37°C/5% CO2. After 48 h, FluoroSpot plates were developed according to the manufacturer's directions. Spots were counted on an iSpot Spectrum FluoroSpot reading system (AID, Strassberg, Germany) using software 7.0, build 14790. Fluorophore-specific spot parameters were defined using the spot size, spot intensity, and spot gradient. A spot separation algorithm was applied for optimal spot detection. Analysis and counting of spots were performed by unbiased experts at ZellNet Consulting, Inc. (Fort Lee, NJ).

IC50 (HLA DRB1*0101): 11.1 µM | IC50 (HLA DRB1*0301; unit inferred): > 1000 µM | IC50 (HLA DRB1*0401): > 1000 µM | IC50 (HLA DRB1*0701): > 1000 µM | IC50 (HLA DRB1*0901): > 1000 µM | IC50 (HLA DRB1*1101): 105 µM | IC50 (HLA DRB1*1301; unit inferred): > 1000 µM | IC50 (HLA DRB1*1501): 95.9 µM
Molecule: CC(C)C[C@H](NC(=O)[C@H](CCCCN)NC(=O)CNC(=O)[C@H](CC(C)C)NC(=O)[C@@H](NC(=O)[C@H](CO)NC(=O)[C@@H](NC(=O)[C@@H](N)CO)[C@@H](C)O)C(C)C)C(=O)N[C@@H](CO)C(=O)N[C@@H](CCC(N)=O)C(=O)N[C@@H](CCC(=O)O)C(=O)N[C@@H](CC(C)C)C(=O)N[C@@H](Cc1c[nH]cn1)C(=O)N[C@@H](CCCCN)C(=O)N[C@@H](CC(C)C)C(=O)N[C@@H](CCC(N)=O)C(=O)N[C@H](C(=O)N[C@@H](Cc1ccc(O)cc1)C(=O)O)[C@@H](C)O [API SCT(5-22)] (H-STSVLGKLSQELHKLQTY-OH)

Percentage of Responding Donors (human donor PBMCs): 63% | Responding Donors (human donor PBMCs): 10
Molecule: CSNLSTCVLGKLSQELHKLQTYPRTNTGGSGTP (disulfide 1-7 (inferred)) [12_ENDO-GLY28_SCT, full-length SCT impurity, insertion of glycine at position 28]

IC50, HLA DRB1*0301 (HLA DRB1*0301; unit not given): did not bind | IC50, HLA DRB1*0401 (HLA DRB1*0401): did not bind | IC50, HLA DRB1*1301 (HLA DRB1*1301; unit not given): did not bind
Molecule: CC(C)C[C@H](NC(=O)[C@H](CCC(=O)O)NC(=O)[C@H](CCC(N)=O)NC(=O)[C@@H](N)CO)C(=O)N[C@@H](Cc1c[nH]cn1)C(=O)N[C@@H](CCCCN)C(=O)N[C@@H](CC(C)C)C(=O)N[C@@H](CCC(N)=O)C(=O)N[C@@H](Cc1ccc(O)cc1)C(=O)N1CCC[C@H]1C(=O)N[C@@H](CCCNC(=N)N)C(=O)N[C@H](C(=O)N[C@@H](CC(N)=O)C(=O)N[C@H](C(=O)NCC(=O)N[C@@H](CO)C(=O)NCC(=O)N[C@H](C(=O)O)[C@@H](C)O)[C@@H](C)O)[C@@H](C)O [DES-THR21_SCT(13-27)] (H-SQELHKLQYPRTNTGSGT-OH; N-terminus and C-terminus assumed)

Molecule: CSNLSTCVLGKLSQELHKLETYPRTNTGSGTP (disulfide) (disulfide 1-7 (inferred)) [07_Q20E_SCT, full-length SCT impurity, glutamine 20 deamidated to glutamic acid]
Percentage of Responding Donors (human donor PBMCs): 56% | Responding Donors (human donor PBMCs): 9
